Data taken from patent US11426084B2, “Method, apparatus and computer program for noninvasively determining cause of blood pressure change” (THE ASAN FOUNDATION, priority 2017, dated 2022).

Test system: blood pressure, myocardial contractile force and vascular resistance
Test: Administration of a cardiovascular agonist/blocker; indexes on myocardial contractile force and vascular resistance and changes in S1a and S2a observed
Type: in vivo
Settings: for change in S1a and S2a when the drug is administered (in words): summary of Tables 2 to 4
Description: As cases of administering a cardiovascular agonist, Table 2 illustrates an experimental example in which various indexes on myocardial contractile force and vascular resistance and changes in S1a and S2a were observed when ephedrine of 10 mg as alpha and beta agonist was administered, Table 3 illustrates an experimental example in which various indexes on myocardial contractile force and vascular resistance and changes in S1a and S2a were observed when esmolol of 25 mg as beta-blocker was administered, and Table 4 illustrates an experimental example in which various indexes on myocardial contractile force and vascular resistance and changes in S1a and S2a were observed when phenylephrine of 100 mcg as the alpha agonist was administered. In order to determine the cause of the change in blood pressure, the above-described agents causing the change in blood pressure were administered and the response after the administration was examined.

## CNC[C@H](O)c1cccc(O)c1 [phenylephrine]
After administration of phenylephrine 100 mcg, before administration 2.86 ± 1.73, P 0.531
  S12_R: 4.18 ± 6.7
After administration of phenylephrine 100 mcg, before administration 14.29 ± 7.53, P 0.016
  S2a: 18.89 ± 8.14 au
After administration of phenylephrine 100 mcg, before administration 33.6 ± 20.8, P 0.428
  S1a: 31.4 ± 15.5 au
After administration of phenylephrine 100 mcg, before administration 93.7 ± 13.2, P 0.014
  SBP: 111.5 ± 13.8 mmHg
After administration of phenylephrine 100 mcg, before administration 452.7 ± 110.0, P 0.007
  SVR: 524.0 ± 132.2 dyne · sec/cm^5
After administration of phenylephrine 100 mcg, before administration 575 ± 141, P 0.384
  RRI: 528 ± 197 ms
After administration of phenylephrine 100 mcg, before administration 585.1 ± 106.1, P <0.001
  dp/dt: 744.8 ± 95.3 mmHg/s
  change in S1a and S2a when the drug is administered (in words): any significant change does not occur in S1a unlike S2a

## COC(=O)CCc1ccc(OCC(O)CNC(C)C)cc1 (centres unmarked) [esmolol]
After administration of esmolol 25 mg, before administration 2.6 ± 0.91, P 0.001
  S12_R: 1.4 ± 0.38
After administration of esmolol 25 mg, before administration 13.7 ± 4.4, P 0.011
  S′: 10.2 ± 2.1
After administration of esmolol 25 mg, before administration 19.6 ± 5.5, P 0.162
  S2a: 21.1 ± 5.4 au
After administration of esmolol 25 mg, before administration 49.3 ± 20.3, P 0.001
  S1a: 27.5 ± 9.3 au
After administration of esmolol 25 mg, before administration 136.1 ± 16.8, P <0.001
  SBP: 124.4 ± 13.2 mmHg
After administration of esmolol 25 mg, before administration 598 ± 96, P <0.001
  RRI: 700 ± 95 ms
After administration of esmolol 25 mg, before administration 776.4 ± 256.1, P 0.062
  SVR: 750.8 ± 251.0 dyne · sec/cm^5
After administration of esmolol 25 mg, before administration 1051.5 ± 233.4, P <0.001
  dp/dt: 804.3 ± 151.1 mmHg/s
  change in S1a and S2a when the drug is administered (in words): only S1a is significantly decreased

## CN[C@@H](C)[C@H](O)c1ccccc1 [ephedrine]
After administration of ephedrine 10 mg, before administration 1.79 ± 0.83, P 0.209
  S12_R: 2.06 ± 0.84
After administration of ephedrine 10 mg, before administration 9.7 ± 2.1, P 0.014
  S′: 11.3 ± 2.7
After administration of ephedrine 10 mg, before administration 17.7 ± 8.1, P 0.004
  S2a: 22.6 ± 9.2 au
After administration of ephedrine 10 mg, before administration 27.6 ± 12.6, P 0.012
  S1a: 43.7 ± 24.9 au
After administration of ephedrine 10 mg, before administration 109.6 ± 13.2, P <0.001
  SBP: 139.3 ± 14.0 mmHg
After administration of ephedrine 10 mg, before administration 652 ± 70, P 0.029
  RRI: 625 ± 90 ms
After administration of ephedrine 10 mg, before administration 719.4 ± 199.2, P 0.011
  SVR: 892.6 ± 250.2 dyne · sec/cm^5
After administration of ephedrine 10 mg, before administration 725.2 ± 73.8, P 0.001
  dp/dt: 1065.5 ± 217.6 mmHg/s
  change in S1a and S2a when the drug is administered (in words): S1a and S2a increase together
